Each compound was assayed against T1, full-length recombinant rat vitamin D receptor (VDR) (Rattus norvegicus, UniProt P13053) (assay: competitive radioligand displacement).
T1 sequence (P13053 1-423): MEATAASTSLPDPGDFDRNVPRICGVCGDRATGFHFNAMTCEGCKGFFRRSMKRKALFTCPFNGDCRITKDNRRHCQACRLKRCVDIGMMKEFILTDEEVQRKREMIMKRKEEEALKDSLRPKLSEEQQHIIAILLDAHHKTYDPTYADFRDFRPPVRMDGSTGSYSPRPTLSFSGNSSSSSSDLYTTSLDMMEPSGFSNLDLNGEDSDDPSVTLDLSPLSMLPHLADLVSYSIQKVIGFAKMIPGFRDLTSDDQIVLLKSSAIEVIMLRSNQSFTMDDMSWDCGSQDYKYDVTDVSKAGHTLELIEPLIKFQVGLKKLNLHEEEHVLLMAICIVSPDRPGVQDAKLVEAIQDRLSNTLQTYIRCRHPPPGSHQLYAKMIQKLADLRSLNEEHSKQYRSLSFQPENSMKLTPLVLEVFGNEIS
Format: binding

First: C=C1[C@H](O)CC(=C/C=C2\CCC[C@]3(C)[C@@H]([C@H](C)/C=C/C[C@@H](C)O)CC[C@@H]23)C[C@H]1O [8a, (20R,25R)-2-Methylene-19,26-dinor-22-(E)-ene-1α,25-dihydroxyvitamin D3]
Second: C=C1[C@H](O)CC(=C/C=C2\CCC[C@]3(C)[C@@H]([C@H](C)/C=C/C[C@H](C)O)CC[C@@H]23)C[C@H]1O [8b, (20R,25S)-2-Methylene-19,26-dinor-22-(E)-ene-1α,25-dihydroxyvitamin D3]
The Ki of the first is 3.3-fold lower: 90 pM for the first, 300 pM for the second.

Compared with C=C1[C@H](O)CC(=C/C=C2\CCC[C@]3(C)[C@@H]([C@@H](C)/C=C/C[C@@H](C)O)CC[C@@H]23)C[C@H]1O [9a, (20S,25R)-2-Methylene-19,26-dinor-22-(E)-ene-1α,25-dihydroxyvitamin D3], C=C1[C@H](O)CC(=C/C=C2\CCC[C@]3(C)[C@@H]([C@@H](C)/C=C/C[C@H](C)O)CC[C@@H]23)C[C@H]1O [9b, (20S,25S)-2-Methylene-19,26-dinor-22-(E)-ene-1α,25-dihydroxyvitamin D3] is 2.5-fold higher in Ki: 80 pM for the first, 200 pM for the second.

Going from C[C@H](/C=C/[C@H](C)C(C)(C)O)[C@H]1CC[C@H]2/C(=C/C=C3C[C@@H](O)C[C@H](O)C3)CCC[C@]12C [compound 2, 19-Nor-1α,25-dihydroxyvitaminD2 (Zemplar)] to C=C1[C@H](O)CC(=C/C=C2\CCC[C@]3(C)[C@@H]([C@H](C)/C=C/CC(C)(C)O)CC[C@@H]23)C[C@H]1O [compound 6, 2-Methylene-19-nor-22(E)-ene-1α,25-dihydroxyvitamin D3], the Ki falls from 100 pM to 60 pM (1.7-fold). The second binds more tightly here.
